The record followed here is US7855200B2, “Method for treatment of gastric ulcers and ulcers induced by aspirin” (Council of Scientific and Industrial Research, priority 2006, dated 2010).

Type in all cases: in vivo, albino rats
The test system of one assay is Pylorus ligated rats. Description: Pylorus ligated ulcers. To be noted: 25 mg/kg, 4 hours after pylorus ligation; for inhibition at 25 mg/kg: Rattus norvegicus. An excerpt: (§1) The compounds taken under study for antigastric ulcer screening by four different models were selected using experimental albino rats: • 1. Aspirin induced gastric ulceration • 2. Pylorus ligated gastric ulceration • 3. Ethanol induced gastric ulceration • 4. Stress induced gastric ulceration
(§2) The commercially available drug ranitidine (sigma), Omeprazole (sigma) and sucralfate (Merck) were used as reference standard in experimental models. The Tween-80 (SD fine chemicals) was used as vehicle for the administration of the drug, which is used as control.
The animals were divided into 19 groups of 6 animals each. Animals were deprived of food for 48 hours but had free access to water. Group 1 received the vehicle Tween 80 (1%, 1 ml) which served as the control. Group 2 received ranitidine at a dose of 50-mg/kg-body weight, which served as standard for comparison. […] After one hour of administration of drug the stomach was ligated at the pylorus under ether anesthesia. 4 hours after pylorus ligation, the animals were sacrificed and the contents drained and centrifuges at 5000 rpm for 10 minutes. Aliquots of supernatant were used for determination of total acid by titrating with 0.01N NaOH using topfers reagent and phenolphthalein indicators. 4.
The animals were divided into 7 groups of 6 animals each. Animals were deprived of food for 48 hours but had free access to water. Group 1 received the vehicle Tween 80 (1%, 1 ml) which served as the control. Group 2 received ranitidine at a dose of 50-mg/kg-body weight, which served as standard for comparison. Group 3 to 7 received at a dose of 50, 25, 15, 10 and 5 mg/kg body weight respectively. After one hour of administration of drug the stomach was ligated at the pylorus under ether anesthesia. 4 hours after pylorus ligation, the animals were sacrificed and the contents drained and centrifuges at 5000 rpm for 10 minutes. Aliquots of supernatant were used for determination of total acid by titrating with 0.01N NaOH using topfers reagent and phenolphthalein indicators.

Assay [1] relates to acetyl salicylic acid induced gastric lesions. The assay is described as follows: Acetyl salicylic acid (aspirin) induced gastric ulcer. The arrangement: Ulcer index Mean(SE): scale not given here. To be noted: rats, 25 mg/kg per orally daily for five days, aspirin 200 mg/kg; for inhibition at 25 mg/kg: Rattus norvegicus, po, 120 h. As for the experimental part:
Stress induced gastric ulceration The commercially available drug ranitidine (sigma), Omeprazole (sigma) and sucralfate (Merck) were used as reference standard in experimental models. The Tween-80 (SD fine chemicals) was used as vehicle for the administration of the drug, which is used as control. Antiulcer activity of the compounds under taken was studied. The animals were divided into 20 groups of 6 animals each. Group 1 received the vehicle Tween 80 (1%, 1 ml) which served as the control. Group 2 received ranitidine at a dose of 50-mg/kg body weight, which served as standard for comparison. Group 3 to 20 at a dose of 25 mg/kg body weight. Rats were administered per orally with a daily dose of the compounds and the drug ranitidine for a period of five days and then fasted for 24 hours. The […] acetyl salicylic acid (aspirin) at a dose of 200 mg/kg body weight was administered as a suspension in tween-80 (1%), 30 min after the drug administration each day. All drugs were administered orally on the 6th day after the last administration of the drugs and the ulcer inducing agent aspirin, the rats were killed by cervical dislocation and their stomach were opened along the greater curvature and washed with luke warm saline and examined under a dissecting microscope. The ulcer index was calculated for each stomach. […] The antiulcer activity of the compounds was studied. The animals were divided into 19 groups of 6 animals each. Group 1 received the vehicle Tween 80 (1%, 1 ml) which served as the control. Group 2 received ranitidine at a dose of 50-mg/kg-body weight, which served as standard for comparison. […] Rats were administered per orally with a daily dose of the compounds and the drug ranitidine to respective groups for a period of five days and then fasted for 24 hours. The […] acetyl salicylic acid (aspirin) at a dose of 200 mg/kg body weight was administered as a suspension in tween-80 (1%), 30 min after the drug administration each day. All drugs were administered orally on ht […] day after the last administration of the drugs and the ulcer inducing agent aspirin, the rats were killed by cervical dislocation and their stomach were opened along the greater curvature and washed with luke warm saline and examined under a dissecting microscope.

The test system of assay [2] is ethanol induced gastric ulcers. The assay is described as follows: Ethanol induced ulcers. To be noted: rats, 25 mg/kg, ethanol challenge; for inhibition at 25 mg/kg: Rattus norvegicus; for Acidity Total mEg / Gastric content / pH: 4 hours after pylorus ligation. As for the experimental part:
Stress induced gastric ulceration The commercially available drug ranitidine (sigma), Omeprazole (sigma) and sucralfate (Merck) were used as reference standard in experimental models. The Tween-80 (SD fine chemicals) was used as vehicle for the administration of the drug, which is used as control. The animals were divided into 22 groups of 6 animals each. Animals were deprived of food for 48 hours but had free access to water. Group 1 received the vehicle Tween 80 (1%, 1 ml) which served as the control. Group 2 received ranitidine at a dose of 50-mg/kg-body weight, which served as standard for comparison. Group 3 to received Omeprazole at a dose of 30-mg/kg body weight, which served as standard for comparison. Group 4 received sucralfate at a dose of 400-mg/kg body weight, which served as standard for comparison. Group 5 to 22 received at a dose of 25 mg/kg body weight. Lesions were induced 1 hour after ethanol challenge animals. The stomach was ligated at the pylorus under ether anesthesia. 4 hours after pylorus ligation, the animals were sacrificed and the contents drained and centrifuges at 5000 rpm for 10 minutes. Aliquots of supernatant were used for determination of total acid by titrating with 0.01N NaOH using topfers reagent and phenolphthalein indicators. […] The animals were divided into 9 groups of 6 animals each. Animals were deprived of food for 48 hours but had free access to water. Group 1 received the vehicle Tween 80 (1%, 1 ml) which served as the control. Group 2 received ranitidine at a dose of 50-mg/kg-body weight, which served as standard for comparison. Group 3 to received Omeprazole at a dose of 30-mg/kg body weight, which served as standard for comparison. Group 4 received sucralfate at a dose of 400-mg/kg body weight, which served as standard for comparison. […] Lesions were induced 1 hour after ethanol challenge animals. The stomach was ligated at the pylorus under ether anesthesia. 4 hours after pylorus ligation, the animals were sacrificed and the contents drained and centrifuges at 5000 rpm for 10 minutes. Aliquots of supernatant were used for determination of total acid by titrating with 0.01N NaOH using topfers reagent and phenolphthalein indicators.

In assay [3] the test system is gastric ulceration in cold restraint rats. Description: Cold restraint (stress) induced ulcers. Further details: Ulcer index Mean(SE): scale not given here. The note with it: rats, 25 mg/kg per orally, 4° C. for 2 hours; for inhibition at 25 mg/kg: Rattus norvegicus, po.
Source text: as §1, §2
(§3) The antiulcer activity of the compounds was studied. The animals were divided into 21 groups of 7 animals each. Group 1 received the vehicle Tween 80 (1%, 1 ml) which served as the control. Group 2 received ranitidine at a dose of 50-mg/kg body weight, which served as standard for comparison. Group 3 to 21 at a dose of 25 mg/kg body weight. Animals were deprived of food 48 hours before the experiment. The water was allowed for free access. Rats were administered per orally with compounds and the drug ranitidine. The water was removed 1 hour before restraint and exposed to a temperature of 4° C. for 2 hours. Two hours after stress, the animals were sacrificed. The stressed animals were opened along the greater curvature and the severity of gastric ulcer was assessed in terms of mean ulcer index. 2.
as §3, with “8” for “21”, “6” for “7”, “50, 25, 15, 10 and 5” for “25”, “weight respectively.” for “weight.”, “index.” for “index. 2.”

By inhibition is commonly meant the relative decrease from the control value, in per cent. With `CN(C)CCCOc1cc(O)c2c(=O)cc(-c3ccccc3)oc2c1` [CHN-2, 7-(3-Dimethylamino-propoxy)-5-hydroxy-2-phenyl chromen-4-one], in the assay with Pylorus ligated rats, the “Acidity Total mEg” value is 37.18 (±4.20) m Eg, the Gastric content is 1.80 (±0.46), the “Ulcer index Mean(SE)” value is given as 20.83 (±2.00) and the pH is 4.25 (±0.09). Besides, the inhibition at 25 mg/kg with Pylorus ligated rats worked out at 58.4%. Also, in assay [1], the inhibition at 25 mg/kg is 55.7% and the “Ulcer index Mean(SE)” value came out at 20.00. Also, in assay [2], the inhibition at 25 mg/kg was 42.5%, the “Ulcer index Mean(SE)” value was 38.33 (±3.07), the “Acidity Total mEg” value is 28.10 (±0.48) mEg and the Gastric content was 3.2 (±0.42). Also, the pH in assay [2] is listed as 5.14 (±0.36). Also, in assay [3], the inhibition at 25 mg/kg came to 56.1% and the “Ulcer index Mean(SE)” value came to 17.85.
Regarding `O=c1cc(-c2ccccc2)oc2cc(OCCCN3CCCCC3)cc(O)c12` [CPP-2, 5-Hydroxy-2-phenyl-7-(3-piperidin-1-yl-propoxy)-chromen-4-one], in the assay on Pylorus ligated rats, the “Acidity Total mEg” value is 29.06 (±2.20) m Eg, the Gastric content is listed as 2.60 (±0.24), the “Ulcer index Mean(SE)” value was 15.80 (±2.71) and the pH is listed as 3.25 (±0.11). This compound showed an inhibition at 25 mg/kg in the assay on Pylorus ligated rats of 68.5%. In addition, in assay [1], testing at 25 mg/kg gave an inhibition of 66.8% and the “Ulcer index Mean(SE)” value is 14.99. For the same compound, in assay [2], the inhibition at 25 mg/kg worked out at 36.2%, the “Ulcer index Mean(SE)” value is reported as 28.83 (±2.71), the “Acidity Total mEg” value was 44.60 (±4.12) mEg and the Gastric content is 3.2 (±0.62). In addition, the pH in assay [2] is 3.33 (±0.16). Moreover, in assay [3], the inhibition at 25 mg/kg is 61.4% and the “Ulcer index Mean(SE)” value stood at 15.71.
On to `O=c1cc(-c2ccccc2)oc2cc(O)cc(O)c12` [Chrysin, 5,7-dihydroxy-2-phenyl-chromen-4-one], for which, in the assay on Pylorus ligated rats, the “Acidity Total mEg” value is 56.00 (±0.82) m Eg, the Gastric content is recorded as 1.85 (±0.82), the “Ulcer index Mean(SE)” value is on record as 37.21 (±0.26) and the pH is 4.00 (±0.40). In addition, the inhibition at 25 mg/kg with Pylorus ligated rats stood at 25.7%. Moreover, in assay [1], the inhibition at 25 mg/kg was found to be 46.7% and the “Ulcer index Mean(SE)” value was found to be 24.06. Also, in assay [2], testing at 25 mg/kg gave an inhibition of 9.01%, the “Ulcer index Mean(SE)” value is given as 60.66 (±2.88), the “Acidity Total mEg” value is on record as 48.00 (±2.20) mEg and the Gastric content is 4.20 (±0.02). For the same compound, in assay [2], the pH is reported as 3.20 (±0.40). Further, in assay [3], 25 mg/kg produced 42.7% inhibition and the “Ulcer index Mean(SE)” value was determined as 23.03.
`COc1cc(O)c2c(=O)cc(-c3ccccc3)oc2c1` [Methoxy chrysin, 5-hydroxy-7-methoxy-2-phenyl-chromen-4-one]: in the assay on Pylorus ligated rats, the “Acidity Total mEg” value is 47.20 (±2.40) m Eg, the Gastric content is given as 2.20 (±0.44), the “Ulcer index Mean(SE)” value is 48.80 (±3.07) and the pH was 3.20 (±0.25). Besides, 25 mg/kg produced 2.62% inhibition in the assay with Pylorus ligated rats. In assay [1], the inhibition at 25 mg/kg is 11.3% and the “Ulcer index Mean(SE)” value was 40.00. Also, in assay [2], the inhibition at 25 mg/kg was 15%, the “Ulcer index Mean(SE)” value is given as 46.66 (±1.66), the “Acidity Total mEg” value is reported as 49.20 (±4.12) mEg and the Gastric content was 3.9 (±0.40). Moreover, the pH in assay [2] was 2.91 (±0.15). In addition, in assay [3], the inhibition at 25 mg/kg was found to be 8.77% and the “Ulcer index Mean(SE)” value stood at 27.14.
Regarding `CN1CCN(CCCOc2cc(O)c3c(=O)cc(-c4ccccc4)oc3c2)CC1` [NMC-2, 5-Hydroxy-7-[3-(4-methyl-piperzin-1-yl]-propoxy)-2-phenyl hromen-4-one], in the assay with Pylorus ligated rats, the “Acidity Total mEg” value was 36.26 (±2.80) m Eg, the Gastric content is reported as 1.90 (±0.62), the Inhibition % amounted to 43.47% and the “Ulcer index Mean(SE)” value is on record as 28.33 (±0.10). Besides, in the assay on Pylorus ligated rats, the pH is recorded as 4.25 (±0.14). For the same compound, in assay [1], the Inhibition % was 48.30% and the “Ulcer index Mean(SE)” value was 23.33. In assay [2], the Inhibition % was 57.50%, the “Ulcer index Mean(SE)” value is 28.33 (±3.33), the “Acidity Total mEg” value is 30.26 (±0.42) mEg and the Gastric content was 4.8 (±0.06). In addition, the pH in assay [2] is 4.75 (±0.28). Also, in assay [3], the Inhibition % was 59.67% and the “Ulcer index Mean(SE)” value came to 16.42.
